Test results: patent publication US11345666B2, “Phenyl and pyridinyl substituted imidazoles as modulators of RORγT” (Janssen Pharmaceutica NV, priority 2018, dated 2022)
Marks after values point to notes of the source that are not given here.

Tests used:
[1] = molecular target: human RORγt ligand binding domain (RORγt LBD) (Homo sapiens (Human), UniProt P51449); test: RORγt ThermoFluor assay
How it was run: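 Thermal shift of His-tagged human RORγt LBD (0.065 mg/mL) with 60 μM 1,8-ANS in 100 mM Hepes pH 7.0, 10 mM NaCl, 2.5 mM GSH, 0.002% Tween-20, heated at 1° C./min. Compounds in 1:2 series from a 10 mM DMSO stock; KD estimated from ΔTm using protein unfolding thermodynamics.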

full-length human RORγt = full-length human RORγt (Homo sapiens (Human), UniProt P51449); test: RORγt (full-length human) reporter assay, conditions A or B; assay type: cell-based; conditions: for IC50: HEK293T cells, read-out: RORγt (FL) Reporter Assay A or B, IC50; for inhibition at 6 µM: read-out: RORγt (FL) Reporter Assay A or B, % inhibition @ 6 μM, 6 μM compound concentration; for inhibition at 3 µM / RORγt (FL) Reporter Assay A or B, % inhibition: 3 μM compound concentration (*)
How it was run: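 HEK293T cells transiently co-transfected (PEI) with GAL4-DBD–RORγt, GAL4-firefly luciferase and CMV-Renilla reporters; condition A 35,000 cells/well, 170.5 ng DNA/well; condition B 8750 cells/well, 42.6 ng DNA/well.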

[2] = read-out: RORγt (FL) Reporter Assay A or B, % inhibition

Sequence of human RORγt ligand binding domain (RORγt LBD) (P51449 other isoform, or with tags, fused parts or gaps): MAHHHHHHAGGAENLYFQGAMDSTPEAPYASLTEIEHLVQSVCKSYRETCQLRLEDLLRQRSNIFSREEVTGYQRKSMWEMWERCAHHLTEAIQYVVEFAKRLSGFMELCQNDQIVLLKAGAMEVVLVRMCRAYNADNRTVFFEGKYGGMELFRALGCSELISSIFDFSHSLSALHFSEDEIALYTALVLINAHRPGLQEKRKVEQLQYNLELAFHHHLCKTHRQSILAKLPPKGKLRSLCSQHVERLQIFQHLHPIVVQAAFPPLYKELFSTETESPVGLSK
Sequence of full-length human RORγt (P51449 other isoform, or with tags, fused parts or gaps): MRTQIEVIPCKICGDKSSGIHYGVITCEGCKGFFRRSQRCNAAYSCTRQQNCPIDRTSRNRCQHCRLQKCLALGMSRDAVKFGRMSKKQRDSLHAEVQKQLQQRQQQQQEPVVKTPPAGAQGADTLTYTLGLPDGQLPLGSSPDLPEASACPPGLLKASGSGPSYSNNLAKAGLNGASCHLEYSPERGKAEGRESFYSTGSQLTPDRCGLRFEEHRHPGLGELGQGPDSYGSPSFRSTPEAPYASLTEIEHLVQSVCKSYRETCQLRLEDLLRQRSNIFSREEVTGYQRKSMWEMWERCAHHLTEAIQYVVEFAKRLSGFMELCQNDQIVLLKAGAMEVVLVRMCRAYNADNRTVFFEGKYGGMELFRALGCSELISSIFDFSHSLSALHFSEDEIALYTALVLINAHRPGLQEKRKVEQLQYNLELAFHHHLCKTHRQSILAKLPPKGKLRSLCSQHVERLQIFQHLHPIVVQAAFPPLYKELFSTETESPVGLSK

Compound | Kd [1] | IC50 (full-length human RORγt) | inhibition at 3 µM (full-length human RORγt; [2]) | other results
CCc1nc(C(=O)NC[C@]2(O)CC[C@@H](S(C)(=O)=O)CC2)c(Cl)n1-c1ncc(CC(C)(C)C(F)(F)F)cc1OC(F)F [Example 46, 5-Chloro-1-(3-(difluoromethoxy)-5-(3,3,3-trifluoro-2,2-dimethylpropyl)pyridin-2-yl)-2-ethyl-N-(((1s,4s)-1-hydroxy-4-(methylsulfonyl)cyclohexyl)methyl)-1H-imidazole-4-carboxamide] | 3.1 nM | 28 nM | – | inhibition at 6 µM (full-length human RORγt): 97%
CCc1nc(C(=O)NC[C@H]2CC[C@H](S(C)(=O)=O)CC2)c(C)n1-c1ncc(CC(C)(C)C(F)(F)F)cc1OC(F)F [Example 49, 1-(3-(Difluoromethoxy)-5-(3,3,3-trifluoro-2,2-dimethylpropyl)pyridin-2-yl)-2-ethyl-5-methyl-N-(((1r,4r)-4-(methylsulfonyl)cyclohexyl)methyl)-1H-imidazole-4-carboxamide] | 5.8 nM | 14 nM | – | inhibition at 6 µM (full-length human RORγt): 94%
CCc1nc(C(=O)NC[C@H]2CC[C@H](S(C)(=O)=O)CC2)c(C)n1-c1ncc(CCCC(F)(F)F)cc1OC(F)F [Example 51, 1-(3-(Difluoromethoxy)-5-(4,4,4-trifluorobutyl)pyridin-2-yl)-2-ethyl-5-methyl-N-(((1r,4r)-4-(methylsulfonyl)cyclohexyl)methyl)-1H-imidazole-4-carboxamide] | 120 nM | 140 nM | – | inhibition at 6 µM (full-length human RORγt): 84%
Cc1nc(C(=O)NC[C@H]2CC[C@H](S(C)(=O)=O)CC2)c(C#N)n1-c1ccc(CC(C)(C)C(F)(F)F)cc1OC(F)F [Example 53, 5-Cyano-1-(2-(difluoromethoxy)-4-(3,3,3-trifluoro-2,2-dimethylpropyl)phenyl)-2-methyl-N-(((1r,4r)-4-(methylsulfonyl)cyclohexyl)methyl)-1H-imidazole-4-carboxamide] | 2.5 nM | 11 nM | 84% | –
Cc1nc(C(=O)NC[C@]2(O)CC[C@@H](S(C)(=O)=O)CC2)c(C#N)n1-c1ccc(CC(C)(C)C(F)(F)F)cc1OC(F)F [Example 54, 5-Cyano-1-(2-(difluoromethoxy)-4-(3,3,3-trifluoro-2,2-dimethylpropyl)phenyl)-N-(((1s,4s)-1-hydroxy-4-(methylsulfonyl)cyclohexyl)methyl)-2-methyl-1H-imidazole-4-carboxamide] | 11 nM | 35 nM | – | inhibition at 1 µM (full-length human RORγt; 1 μM compound concentration (***), read-out: RORγt (FL) Reporter Assay A or B, % inhibition): 83%
CCc1nc(C(=O)NC[C@]2(O)CC[C@@H](S(C)(=O)=O)CC2)c(Cl)n1-c1ncc(CC(C(F)(F)F)C(F)(F)F)cc1OC(F)F [Example 62, 5-Chloro-1-(3-(difluoromethoxy)-5-(3,3,3-trifluoro-2-(trifluoromethyl)propyl)pyridin-2-yl)-2-ethyl-N-(((1s,4s)-1-hydroxy-4-(methylsulfonyl)cyclohexyl)methyl)-1H-imidazole-4-carboxamide] | 19 nM | 89 nM | 100% | –
CCc1nc(C(=O)NC[C@H]2CC[C@H](S(C)(=O)=O)CC2)c(Cl)n1-c1ncc(CC(C(F)(F)F)C(F)(F)F)cc1OC(F)F [Example 63, 5-Chloro-1-(3-(difluoromethoxy)-5-(3,3,3-trifluoro-2-(trifluoromethyl)propyl)pyridin-2-yl)-2-ethyl-N-(((1r,4r)-4-(methylsulfonyl)cyclohexyl)methyl)-1H-imidazole-4-carboxamide] | 7.3 nM | 47 nM | 95% | –
CCc1nc(C(=O)NC[C@H]2CC[C@H](S(=O)(=O)NC)CC2)c(Cl)n1-c1ncc(CC(C)(C)C(F)(F)F)cc1OC(F)F [Example 68, 5-Chloro-1-(3-(difluoromethoxy)-5-(3,3,3-trifluoro-2,2-dimethylpropyl)pyridin-2-yl)-2-ethyl-N-(((1r,4r)-4-(N-methylsulfamoyl)cyclohexyl)methyl)-1H-imidazole-4-carboxamide] | 3.7 nM | 50 nM | – | RORγt (FL) Reporter Assay A or B, % inhibition (full-length human RORγt): 103* %
CCc1nc(C(=O)NC[C@H]2CC[C@H](S(N)(=O)=O)CC2)c(Cl)n1-c1ncc(CC(C)(C)C(F)(F)F)cc1OC(F)F [Example 69, 5-Chloro-1-(3-(difluoromethoxy)-5-(3,3,3-trifluoro-2,2-dimethylpropyl)pyridin-2-yl)-2-ethyl-N-(((1r,4r)-4-sulfamoylcyclohexyl)methyl)-1H-imidazole-4-carboxamide] | 7.2 nM | 39 nM | 102% | –
CCc1nc(C(=O)NC[C@H]2CC[C@H](S(=O)(=O)N(C)C)CC2)c(Cl)n1-c1ncc(CC(C)(C)C(F)(F)F)cc1OC(F)F [Example 70, 5-Chloro-1-(3-(difluoromethoxy)-5-(3,3,3-trifluoro-2,2-dimethylpropyl)pyridin-2-yl)-N-(((1r,4r)-4-(N,N-dimethylsulfamoyl)cyclohexyl)methyl)-2-ethyl-1H-imidazole-4-carboxamide] | 320 nM | 350 nM | – | RORγt (FL) Reporter Assay A or B, % inhibition (full-length human RORγt): 88* %
CCc1nc(C(=O)NC[C@H]2CC[C@H](S(C)(=O)=O)CC2)c(Cl)n1-c1ncc(CC(C)(C)C(F)(F)F)cc1C [Example 74, 5-Chloro-2-ethyl-1-(3-methyl-5-(3,3,3-trifluoro-2,2-dimethylpropyl)pyridin-2-yl)-N-(((1r,4r)-4-(methylsulfonyl)cyclohexyl)methyl)-1H-imidazole-4-carboxamide] | 34 nM | 92 nM | 116% | –
CCc1cc(CC(C)(C)C(F)(F)F)cnc1-n1c(CC)nc(C(=O)NC[C@H]2CC[C@H](S(C)(=O)=O)CC2)c1Cl [Example 75, 5-Chloro-2-ethyl-1-(3-ethyl-5-(3,3,3-trifluoro-2,2-dimethylpropyl)pyridin-2-yl)-N-(((1r,4r)-4-(methylsulfonyl)cyclohexyl)methyl)-1H-imidazole-4-carboxamide] | 8.3 nM | 59 nM | 110% | –
CCc1nc(C(=O)NC[C@]2(O)CC[C@@H](S(C)(=O)=O)CC2)c(C)n1-c1ncc(CC(C(F)(F)F)C(F)(F)F)cc1OC(F)F [Example 76, 1-(3-(Difluoromethoxy)-5-(3,3,3-trifluoro-2-(trifluoromethyl)propyl)pyridin-2-yl)-2-ethyl-N-(((1s,4s)-1-hydroxy-4-(methylsulfonyl)cyclohexyl)methyl)-5-methyl-1H-imidazole-4-carboxamide] | 110 nM | 440 nM | 76% | –
CCc1nc(C(=O)NC[C@H]2CC[C@H](S(C)(=O)=O)CC2)c(C)n1-c1ncc(CC(C(F)(F)F)C(F)(F)F)cc1OC(F)F [Example 77, 1-(3-(Difluoromethoxy)-5-(3,3,3-trifluoro-2-(trifluoromethyl)propyl)pyridin-2-yl)-2-ethyl-5-methyl-N-(((1r,4r)-4-(methylsulfonyl)cyclohexyl)methyl)-1H-imidazole-4-carboxamide] | 20 nM | 77 nM | 101% | –
CCc1nc(C(=O)NC[C@]2(O)CC[C@@H](S(C)(=O)=O)CC2)cn1-c1c(F)cc(CC(C)C)cc1F [Example 81, 1-(2,6-Difluoro-4-isobutylphenyl)-2-ethyl-N-(((1s,4s)-1-hydroxy-4-(methylsulfonyl)cyclohexyl)methyl)-1H-imidazole-4-carboxamide] | 260 nM | 1200 nM | – | inhibition at 6 µM (full-length human RORγt): 27%
CCc1nc(C(=O)NC[C@H]2CC[C@H](S(C)(=O)=O)CC2)cn1-c1c(F)cc(CC(C)C)cc1F [Example 82, 1-(2,6-Difluoro-4-isobutylphenyl)-2-ethyl-N-(((1r,4r)-4-(methylsulfonyl)cyclohexyl)methyl)-1H-imidazole-4-carboxamide] | 150 nM | 370 nM | – | inhibition at 2 µM (full-length human RORγt; 2 μM compound concentration (**), read-out: RORγt (FL) Reporter Assay A or B, % inhibition): 44%
CCc1nc(C(=O)NC[C@]2(O)CC[C@@H](S(C)(=O)=O)CC2)cn1-c1c(F)cc(CC(C)C(F)(F)F)cc1F (stereo partly drawn) [Example 84, 1-(2,6-Difluoro-4-(3,3,3-trifluoro-2-methylpropyl)phenyl)-2-ethyl-N-(((1s,4s)-1-hydroxy-4-(methylsulfonyl)cyclohexyl)methyl)-1H-imidazole-4-carboxamide] | 2200 nM | 2000 nM | – | inhibition at 6 µM (full-length human RORγt): 35%
CCc1nc(C(=O)NC[C@H]2CC[C@H](S(C)(=O)=O)CC2)c(Cl)n1-c1c(F)cc(CC(C)C(F)(F)F)cc1F (stereo partly drawn) [Example 85, 5-Chloro-1-(2,6-difluoro-4-(3,3,3-trifluoro-2-methylpropyl)phenyl)-2-ethyl-N-(((1r,4r)-4-(methylsulfonyl)cyclohexyl)methyl)-1H-imidazole-4-carboxamide] | 8.2 nM | 23 nM | – | inhibition at 0.22 µM (full-length human RORγt; 0.22 μM compound concentration (******), read-out: RORγt (FL) Reporter Assay A or B, % inhibition): 63%
CCc1nc(C(=O)NC[C@]2(O)CC[C@@H](S(C)(=O)=O)CC2)c(Cl)n1-c1c(F)cc(CC(C)C(F)(F)F)cc1F (stereo partly drawn) [Example 88, 5-Chloro-1-(2,6-difluoro-4-(3,3,3-trifluoro-2-methylpropyl)phenyl)-2-ethyl-N-(((1s,4s)-1-hydroxy-4-(methylsulfonyl)cyclohexyl)methyl)-1H-imidazole-4-carboxamide] | 17 nM | 46 nM | – | inhibition at 0.67 µM (full-length human RORγt; 0.67 μM compound concentration (****), read-out: RORγt (FL) Reporter Assay A or B, % inhibition): 67%
